Test results taken from the NIST ThermoML archive (doi:10.1016/j.jct.2012.09.026).
Numbers after ± are expanded uncertainties.

Assay: xn = mol fraction of the nth substance listed
Conditions: Liquid

CC(C)(C)O [2-methylpropan-2-ol] + O
mass density [kg/m3]
Conditions | 278.15 K | 288.15 K | 298.15 K
101.3 kPa, Vibrating tube method, x1 = 0.0248 | 986.88 ± 1 | 985.26 ± 1 | 982.45 ± 1
101.3 kPa, Vibrating tube method, x1 = 0.04241 | 981.87 ± 1 | 978.77 ± 1 | 974.54 ± 1
101.3 kPa, Vibrating tube method, x1 = 0.05887 | 977 ± 1 | 971.81 ± 1 | 965.94 ± 1
101.3 kPa, Vibrating tube method, x1 = 0.08929 | 963.35 ± 1 | 956.03 ± 1 | 949.01 ± 1
101.3 kPa, Vibrating tube method, x1 = 0.1125 | 951.21 ± 1 | 943.7 ± 1 | 936.18 ± 1
101.3 kPa, Vibrating tube method, x1 = 0.1566 | 929.91 ± 1 | 922.09 ± 1 | 914.18 ± 1
101.3 kPa, Vibrating tube method, x1 = 0.208 | 910.57 ± 1 | 902.66 ± 1 | 894.55 ± 1
101.3 kPa, Vibrating tube method, x1 = 0.3023 | 882.17 ± 1 | 874 ± 1 | 865.6 ± 1
101.3 kPa, Vibrating tube method, x1 = 0.4045 | 860.22 ± 1 | 851.78 ± 1 | 843.11 ± 1
101.3 kPa, Vibrating tube method, x1 = 0.4827 | 847.15 ± 1 | 838.7 ± 1 | 830.01 ± 1
101.3 kPa, Vibrating tube method, x1 = 0.5344 | 839.61 ± 1 | 830.98 ± 1 | 822.05 ± 1
101.3 kPa, Vibrating tube method, x1 = 0.6029 | 831.08 ± 1 | 822.27 ± 1 | 813.22 ± 1
101.3 kPa, Vibrating tube method, x1 = 0.726 | 818.36 ± 1 | 809.38 ± 1 | 800.1 ± 1
101.3 kPa, Vibrating tube method, x1 = 0.7999 | 812.56 ± 1 | 803.46 ± 1 | 794.07 ± 1
101.3 kPa, Vibrating tube method, x1 = 0.8711 | – | 797.8 ± 1 | 788.3 ± 1
101.3 kPa, Vibrating tube method, x1 = 0.9183 | – | 794.66 ± 1 | 785.07 ± 1
101.3 kPa, Vibrating tube method, x1 = 0.9574 | – | – | 782.74 ± 1
10000 kPa, Constant-volume piezometry, x1 = 0.0248 | 990.83 ± 1 | 989.1 ± 1 | 986.4 ± 1
10000 kPa, Constant-volume piezometry, x1 = 0.04241 | 985.44 ± 1 | 982.35 ± 1 | 978.4 ± 1
10000 kPa, Constant-volume piezometry, x1 = 0.05887 | 980.38 ± 1 | 975.51 ± 1 | 969.98 ± 1
10000 kPa, Constant-volume piezometry, x1 = 0.08929 | 967.1 ± 1 | 960.11 ± 1 | 953.39 ± 1
10000 kPa, Constant-volume piezometry, x1 = 0.1125 | 955.35 ± 1 | 948.15 ± 1 | 940.81 ± 1
10000 kPa, Constant-volume piezometry, x1 = 0.1566 | 934.55 ± 1 | 927.05 ± 1 | 919.21 ± 1
10000 kPa, Constant-volume piezometry, x1 = 0.208 | 915.88 ± 1 | 908.09 ± 1 | 899.99 ± 1
10000 kPa, Constant-volume piezometry, x1 = 0.3023 | 888.19 ± 1 | 880.07 ± 1 | 871.71 ± 1
10000 kPa, Constant-volume piezometry, x1 = 0.4045 | 866.8 ± 1 | 858.48 ± 1 | 849.93 ± 1
10000 kPa, Constant-volume piezometry, x1 = 0.4827 | 854.18 ± 1 | 845.78 ± 1 | 837.26 ± 1
10000 kPa, Constant-volume piezometry, x1 = 0.5344 | – | 838.32 ± 1 | 829.58 ± 1
10000 kPa, Constant-volume piezometry, x1 = 0.6029 | – | – | 821.11 ± 1
25000 kPa, Constant-volume piezometry, x1 = 0.0248 | 996.63 ± 1 | 994.94 ± 1.1 | 992.33 ± 1.1
25000 kPa, Constant-volume piezometry, x1 = 0.04241 | 990.81 ± 1 | 987.9 ± 1.1 | 984.21 ± 1.1
25000 kPa, Constant-volume piezometry, x1 = 0.05887 | 985.66 ± 1 | 981.16 ± 1.1 | 975.95 ± 1.1
25000 kPa, Constant-volume piezometry, x1 = 0.08929 | 972.88 ± 1 | 966.27 ± 1.1 | 959.85 ± 1.1
25000 kPa, Constant-volume piezometry, x1 = 0.1125 | 961.59 ± 1.1 | 954.74 ± 1.1 | 947.61 ± 1.1
25000 kPa, Constant-volume piezometry, x1 = 0.1566 | 941.34 ± 1.1 | 934.17 ± 1.1 | 926.51 ± 1.1
25000 kPa, Constant-volume piezometry, x1 = 0.208 | 923.3 ± 1.1 | 915.74 ± 1.1 | 907.83 ± 1.1
25000 kPa, Constant-volume piezometry, x1 = 0.3023 | 896.35 ± 1.1 | 888.45 ± 1.1 | 880.25 ± 1.1
25000 kPa, Constant-volume piezometry, x1 = 0.4045 | 875.55 ± 1.1 | 867.58 ± 1.1 | 859.23 ± 1.1
25000 kPa, Constant-volume piezometry, x1 = 0.4827 | 863.45 ± 1.1 | 855.38 ± 1.1 | 847.01 ± 1.1
25000 kPa, Constant-volume piezometry, x1 = 0.5344 | – | 848.18 ± 1.1 | 839.65 ± 1.1
25000 kPa, Constant-volume piezometry, x1 = 0.6029 | – | – | 831.63 ± 1.1
50000 kPa, Constant-volume piezometry, x1 = 0.0248 | 1005.84 ± 1.1 | 1004.75 ± 1.1 | 1002.03 ± 1.1
50000 kPa, Constant-volume piezometry, x1 = 0.04241 | 999.56 ± 1.1 | 997.38 ± 1.1 | 993.67 ± 1.1
50000 kPa, Constant-volume piezometry, x1 = 0.05887 | 994.6 ± 1.1 | 990.56 ± 1.1 | 985.61 ± 1.1
50000 kPa, Constant-volume piezometry, x1 = 0.08929 | 982.34 ± 1.1 | 976.26 ± 1.1 | 970.06 ± 1.1
50000 kPa, Constant-volume piezometry, x1 = 0.1125 | 971.7 ± 1.1 | 965.1 ± 1.1 | 958.37 ± 1.1
50000 kPa, Constant-volume piezometry, x1 = 0.1566 | 952.1 ± 1.1 | 945.1 ± 1.1 | 937.98 ± 1.1
50000 kPa, Constant-volume piezometry, x1 = 0.208 | 934.42 ± 1.1 | 927.25 ± 1.1 | 920 ± 1.1
50000 kPa, Constant-volume piezometry, x1 = 0.3023 | 908.07 ± 1.1 | 900.8 ± 1.1 | 893.22 ± 1.1
50000 kPa, Constant-volume piezometry, x1 = 0.4045 | 887.79 ± 1.1 | 880.62 ± 1.1 | 872.83 ± 1.1
50000 kPa, Constant-volume piezometry, x1 = 0.4827 | 876.1 ± 1.1 | 869.2 ± 1.1 | 861.18 ± 1.1
50000 kPa, Constant-volume piezometry, x1 = 0.5344 | – | 862.25 ± 1.1 | 854.14 ± 1.1
50000 kPa, Constant-volume piezometry, x1 = 0.6029 | – | – | 846.6 ± 1.1
75000 kPa, Constant-volume piezometry, x1 = 0.0248 | 1014.43 ± 1.2 | 1014.19 ± 1.2 | 1011.23 ± 1.2
75000 kPa, Constant-volume piezometry, x1 = 0.04241 | 1007.73 ± 1.2 | 1006.42 ± 1.2 | 1002.58 ± 1.2
75000 kPa, Constant-volume piezometry, x1 = 0.05887 | 1002.96 ± 1.2 | 999.48 ± 1.2 | 994.71 ± 1.2
75000 kPa, Constant-volume piezometry, x1 = 0.08929 | 991.23 ± 1.2 | 985.6 ± 1.2 | 979.52 ± 1.2
75000 kPa, Constant-volume piezometry, x1 = 0.1125 | 981 ± 1.2 | 974.66 ± 1.2 | 968.17 ± 1.2
75000 kPa, Constant-volume piezometry, x1 = 0.1566 | 961.89 ± 1.2 | 955.07 ± 1.2 | 948.39 ± 1.2
75000 kPa, Constant-volume piezometry, x1 = 0.208 | 944.32 ± 1.2 | 937.59 ± 1.2 | 930.82 ± 1.2
75000 kPa, Constant-volume piezometry, x1 = 0.3023 | 918.19 ± 1.2 | 911.52 ± 1.2 | 904.74 ± 1.2
75000 kPa, Constant-volume piezometry, x1 = 0.4045 | 898.01 ± 1.2 | 891.74 ± 1.2 | 884.67 ± 1.2
75000 kPa, Constant-volume piezometry, x1 = 0.4827 | 886.19 ± 1.2 | 880.7 ± 1.2 | 873.35 ± 1.2
75000 kPa, Constant-volume piezometry, x1 = 0.5344 | – | 873.92 ± 1.2 | 866.45 ± 1.2
75000 kPa, Constant-volume piezometry, x1 = 0.6029 | – | – | 859.03 ± 1.2
100000 kPa, Constant-volume piezometry, x1 = 0.0248 | 1022.28 ± 1.3 | 1022.71 ± 1.3 | 1019.69 ± 1.3
100000 kPa, Constant-volume piezometry, x1 = 0.04241 | 1014.85 ± 1.3 | 1014.15 ± 1.3 | –
100000 kPa, Constant-volume piezometry, x1 = 0.05887 | 1009.82 ± 1.3 | 1007.36 ± 1.3 | –
100000 kPa, Constant-volume piezometry, x1 = 0.08929 | 999.16 ± 1.3 | 993.91 ± 1.3 | –
100000 kPa, Constant-volume piezometry, x1 = 0.1125 | 988.91 ± 1.3 | 983.36 ± 1.3 | –
100000 kPa, Constant-volume piezometry, x1 = 0.1566 | 970.36 ± 1.3 | 964.36 ± 1.3 | –
100000 kPa, Constant-volume piezometry, x1 = 0.208 | 953.46 ± 1.3 | 947.22 ± 1.3 | –
100000 kPa, Constant-volume piezometry, x1 = 0.3023 | 927.69 ± 1.3 | 921.12 ± 1.3 | –
100000 kPa, Constant-volume piezometry, x1 = 0.4045 | 907.4 ± 1.3 | 901.88 ± 1.3 | –
100000 kPa, Constant-volume piezometry, x1 = 0.4827 | 895.03 ± 1.3 | 890.44 ± 1.3 | –
100000 kPa, Constant-volume piezometry, x1 = 0.5344 | – | 883.95 ± 1.3 | –
